Each compound was assayed against T1, Gonadotropin-releasing hormone receptor (Rattus norvegicus, UniProt P30969) (assay: Binding affinity for Gonadotropin-releasing hormone receptor in rat pituitary membrane at 10 buserelin as radioligand; NA is not active).
T1 sequence (P30969 whole entry): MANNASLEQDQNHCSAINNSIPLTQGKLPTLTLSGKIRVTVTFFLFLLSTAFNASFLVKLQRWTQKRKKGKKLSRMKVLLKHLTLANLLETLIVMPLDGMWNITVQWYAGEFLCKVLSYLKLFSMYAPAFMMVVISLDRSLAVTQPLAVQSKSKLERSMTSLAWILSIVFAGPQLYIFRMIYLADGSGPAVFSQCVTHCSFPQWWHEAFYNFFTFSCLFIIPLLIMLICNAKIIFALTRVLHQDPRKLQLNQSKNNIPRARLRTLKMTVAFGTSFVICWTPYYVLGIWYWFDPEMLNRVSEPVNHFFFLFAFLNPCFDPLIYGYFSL
Type: cell membranes

IC50 | SMILES
Not Active | Cc1cc(C)cc(-c2c(O)nc3cc(Cl)c([N+](=O)[O-])cc3c2OCCc2ccccn2)c1

Each compound was assayed against T1, Gonadotropin-releasing hormone receptor (assay: Binding affinity for Gonadotropin-releasing hormone receptor in rat pituitary membrane at 10 buserelin as radioligand).
Type: cell membranes

SMILES | IC50 [µM]
Cc1cc(C)cc(-c2c(O)nc3cc(Cl)c([N+](=O)[O-])cc3c2OCC[C@@H]2CCCCN2C)c1 | 0.02
Cc1cc(C)cc(-c2c(O)nc3cc(Cl)c([N+](=O)[O-])cc3c2OCCCC2CCCCN2)c1 (stereo unspecified) | 1.42
Cc1cc(C)cc(-c2c(O)nc3cc(Cl)c([N+](=O)[O-])cc3c2OCC[C@H]2CCCCN2)c1 | 0.15
Cc1cc(C)cc(-c2c(O)nc3cc(Cl)c([N+](=O)[O-])cc3c2OCC[C@H]2CCCCN2C)c1 | 0.085
Cc1cc(C)cc(-c2c(O)nc3cc(Cl)c([N+](=O)[O-])cc3c2OCC[C@@H]2CCN2)c1 | 0.025

Continued, values first:

IC50 [µM] | SMILES
0.1 | Cc1cc(C)cc(-c2c(O)nc3cc(Cl)c([N+](=O)[O-])cc3c2OCC[C@H]2CCCN2)c1
0.036 | Cc1cc(C)cc(-c2c(OCCC3CCCCCN3)c3cc([N+](=O)[O-])c(Cl)cc3[nH]c2=O)c1 (stereo unspecified)
0.015 | Cc1cc(C)cc(-c2c(O)nc3cc(Cl)c([N+](=O)[O-])cc3c2OCC[C@@H]2CCCN2)c1
0.036 | Cc1cc(C)cc(-c2c(OCC3CCCNC3)c3cc([N+](=O)[O-])c(Cl)cc3[nH]c2=O)c1 (stereo unspecified)
0.01 | Cc1cc(C)cc(-c2c(O)nc3cc(Cl)c([N+](=O)[O-])cc3c2OCC[C@@H]2CCCCN2)c1
